From patent US9815842B2, “Pyrazolo pyrimidine derivatives and their use as MALT1 inhibitors” (Novartis AG, priority 2014, dated 2017)

How the values were obtained:
[1] = biological target: cIAP2-MALT1 fusion protein (Homo sapiens, UniProt Q9UDY8); assay: cell-based
Protocol: For the measurement of compound inhibition, 0.25 μl of test compound were mixed with 12.5 μl of enzyme in wells of the 384-well plates, and incubated for 60 minutes at room temperature (22° C.). After that, 12.5 μl of substrate was added, and the enzymatic reaction was allowed to proceed for 60 minutes at room temperature (22° C.). […] The DMSO content was between 0.9 and 1% (v/v). […] The IC50 value was calculated from the plot of percentage inhibition versus inhibitor concentration using non-linear regression analysis software (Origin, OriginLab Corporation, USA). The data were fitted using a 4 Parameter Logistic Model, characterized by the following equation: y=A2+(A1−A2)/(1+(x/IC50)^p) where y is the %-inhibition at the inhibitor concentration, x. A1 is the lowest inhibition value, and A2 the maximum inhibition value.

[2] = biological target: C-domain of MALT1 (amino acids 329-824) (Homo sapiens (Human), UniProt Q9UDY8); assay: MALT1 biochemical assay (fluorescence lifetime enzyme activity assay); conditions: 60 min pre-incubation, 2.5 nM enzyme, 1 μM peptide substrate
Protocol: The readout parameter is the increase of fluorescence lifetime over time, proportional to enzyme activity.
The assay employs a short peptide substrate labeled with the single fluorophore PT14 as a fluorescence lifetime probe sensitive to the cleavage state of the substrate (PT14: 6-(9-oxo-9H-acridin-10-yl)-hexanoate, AssayMetrics, UK). […] The assay buffer consists of 200 mM Tris/HCl at pH 7.5, 0.8 M Na citrate, 100 μM EGTA, 100 μM DTT and 0.05% (w/v) CHAPS. […] Test compounds were dissolved in 100% (v/v) DMSO or a mixture containing 90% (v/v) DMSO and 10% (v/v) H2O at a stock concentration of 100 mM. Serial dilutions of test compounds were prepared using either 100% (v/v) DMSO or a mixture containing 90% (v/v) DMSO and 10% (v/v) H2O.

Human IL2 promoter = Human IL2 promoter reporter gene assay (RGA) in Jurkat cells; assay type: cell-based; conditions: Jurkat clone K22 290_H23, anti-CD28 mAb + PMA stimulation 5.5 h
Protocol: Human IL2 Promoter Reporter Gene Assay (RGA) in Jurkat Cells
The transfected Jurkat clone K22 290_H23 was propagated in RPMI 1640 supplemented with 10% heat inactivated fetal calf serum, 50 μM 2-mercaptoethanol and 1 mg/ml Geneticin. The cell concentration should not exceed 1×10e6/ml during culturing. The cells should not exceed passage 30. Prior to the assay the cells were washed and prepared to the concentration of 2×10e6 cells/ml.
Compound dilutions were made as 2×-concentrated solutions then diluted 1/2 by addition to cells. Two hundred and fifty μl of compound dilution and 250 μl of cells were mixed together in wells of a 96-deep well plate. Cells/compounds premix were incubated 30 min at 37° C. and 5% CO2 directly in the deep well plate.
After pre-incubation of cells with compounds, cells were stimulated with anti-CD28 mAb (clone 15E8) at 3 μg/ml+PMA at 1 μg/ml. Both co-stimulants were diluted in culture medium at a 10×-concentrated solution. 10 μl of co-stimulants were pipetted into the white 96-well plates and 100 μl of cell/compound mix was immediately added in duplicates. The cells were stimulated for 5.5 h at 37° C. and 5% CO2.
After cell stimulation, 50 μl of BriteLitePlus reagent (Perkin Elmer) was added to each well and the bioluminescence was measured with a Wallac EnVision reader (Perkin Elmer).

Sequence of C-domain of MALT1 (amino acids 329-824) (Q9UDY8 329-824): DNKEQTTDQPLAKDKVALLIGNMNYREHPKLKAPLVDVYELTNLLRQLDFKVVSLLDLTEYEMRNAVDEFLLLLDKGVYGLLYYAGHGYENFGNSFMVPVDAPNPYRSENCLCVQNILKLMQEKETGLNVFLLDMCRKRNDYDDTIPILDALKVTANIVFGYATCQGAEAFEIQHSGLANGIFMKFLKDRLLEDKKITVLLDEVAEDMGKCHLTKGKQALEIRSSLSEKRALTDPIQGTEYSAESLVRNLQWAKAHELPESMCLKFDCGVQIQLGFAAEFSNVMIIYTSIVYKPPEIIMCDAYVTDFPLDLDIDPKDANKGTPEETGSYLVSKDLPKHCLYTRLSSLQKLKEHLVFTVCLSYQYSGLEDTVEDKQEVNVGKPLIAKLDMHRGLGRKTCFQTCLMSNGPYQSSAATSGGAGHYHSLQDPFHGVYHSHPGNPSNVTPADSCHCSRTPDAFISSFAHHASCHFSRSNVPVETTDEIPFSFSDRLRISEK
Sequence of cIAP2-MALT1 fusion protein (Q9UDY8 2-824 limits assumed): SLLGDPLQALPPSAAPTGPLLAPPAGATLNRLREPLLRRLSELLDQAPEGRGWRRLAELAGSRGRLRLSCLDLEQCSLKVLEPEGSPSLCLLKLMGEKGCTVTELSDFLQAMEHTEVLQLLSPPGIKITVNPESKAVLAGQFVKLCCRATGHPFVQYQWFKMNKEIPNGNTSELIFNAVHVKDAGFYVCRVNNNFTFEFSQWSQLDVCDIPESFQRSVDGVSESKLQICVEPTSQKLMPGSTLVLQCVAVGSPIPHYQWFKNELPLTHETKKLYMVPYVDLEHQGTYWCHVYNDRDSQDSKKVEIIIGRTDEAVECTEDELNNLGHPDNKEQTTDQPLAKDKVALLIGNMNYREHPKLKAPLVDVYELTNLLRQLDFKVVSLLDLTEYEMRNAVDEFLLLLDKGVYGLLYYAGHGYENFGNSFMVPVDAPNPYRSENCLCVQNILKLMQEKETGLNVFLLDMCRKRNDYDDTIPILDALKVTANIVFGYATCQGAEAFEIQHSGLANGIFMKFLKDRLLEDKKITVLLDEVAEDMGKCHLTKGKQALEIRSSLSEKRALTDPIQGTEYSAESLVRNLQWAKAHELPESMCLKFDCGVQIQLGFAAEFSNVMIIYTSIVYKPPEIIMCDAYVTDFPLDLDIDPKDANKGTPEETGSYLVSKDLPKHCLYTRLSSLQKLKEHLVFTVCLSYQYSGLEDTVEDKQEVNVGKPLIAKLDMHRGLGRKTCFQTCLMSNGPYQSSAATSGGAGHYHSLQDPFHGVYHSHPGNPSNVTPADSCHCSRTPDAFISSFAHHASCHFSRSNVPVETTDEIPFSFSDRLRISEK

| SMILES | IC50 [1] | IC50 [2] | IC50 (Human IL2 promoter) |
| --- | --- | --- | --- |
| COc1cc(NC(=O)Nc2cnc3cc(Cl)nn3c2[C@H](C)OC)cnc1-n1nccn1 [Example 11, (S)-1-(2-chloro-7-(1-methoxyethyl)pyrazolo[1,5-a]pyrimidin-6-yl)-3-(5-methoxy-6-(2H-1,2,3-triazol-2-yl)pyridin-3-yl)urea] | 164 nM | 19 nM |  |
| CO[C@@H](C)c1c(NC(=O)Nc2ccnc(Cl)c2)cnc2cc(Cl)nn12 [Example 12, (S)-1-(2-chloro-7-(1-methoxyethyl)pyrazolo[1,5-a]pyrimidin-6-yl)-3-(2-chloropyridin-4-yl)urea] | 71 nM | 14 nM |  |
| CC1(c2c(NC(=O)Nc3ccnc(C(F)(F)F)c3)cnc3cc(Cl)nn23)CC1 [Example 17, 1-(2-chloro-7-(1-methylcyclopropyl)pyrazolo[1,5-a]pyrimidin-6-yl)-3-(2-(trifluoromethyl)pyridin-4-yl)urea] | 117 nM | 11 nM |  |
| Cc1cc(CO)nn1-c1ccc(NC(=O)Nc2cnc3cc(Cl)nn3c2C(C)C)cc1Cl [Example 28, 1-(3-chloro-4-(3-(hydroxymethyl)-5-methyl-1H-pyrazol-1-yl)phenyl)-3-(2-chloro-7-isopropylpyrazolo[1,5-a]pyrimidin-6-yl)urea] | 215 nM |  |  |
| CC(C)c1c(NC(=O)Nc2cc(Cl)cc3c2NC(=O)C3)cnc2cc(Cl)nn12 [Example 31, 1-(5-chloro-2-oxoindolin-7-yl)-3-(2-chloro-7-isopropylpyrazolo[1,5-a]pyrimidin-6-yl)urea] | 349 nM | 14 nM |  |
| CO[C@@H](c1c(NC(=O)Nc2ccnc(C(F)(F)F)c2)cnc2cc(Cl)nn12)C(C)C [Example 37, (R)-1-(2-chloro-7-(1-methoxy-2-methylpropyl)pyrazolo[1,5-a]pyrimidin-6-yl)-3-(2-(trifluoromethyl)pyridin-4-yl)urea] | 221 nM | 11 nM |  |
| COCCO[C@H](C)c1c(NC(=O)Nc2cnc(-n3nccn3)c(Cl)c2)cnc2cc(Cl)nn12 [Example 42, (R)-1-(5-chloro-6-(2H-1,2,3-triazol-2-yl)pyridin-3-yl)-3-(2-chloro-7-(1-(2-methoxyethoxy)ethyl)pyrazolo[1,5-a]pyrimidin-6-yl)urea] | 378 nM | 21 nM |  |
| COCC1(c2c(NC(=O)Nc3cnc(-n4nccn4)c(Cl)c3)cnc3cc(Cl)nn23)CCC1 [Example 50, 1-(5-chloro-6-(2H-1,2,3-triazol-2-yl)pyridin-3-yl)-3-(2-chloro-7-(1-(methoxymethyl)cyclobutyl)pyrazolo[1,5-a]pyrimidin-6-yl)urea] | 230 nM | 20 nM |  |
| CC(C)(C)OC(=O)N1CCOC(c2c(NC(=O)Nc3cnc(-n4nccn4)c(Cl)c3)cnc3cc(Cl)nn23)C1 (stereo not shown) [Example 66, tert-butyl 2-(2-chloro-6-(3-(5-chloro-6-(2H-1,2,3-triazol-2-yl)pyridin-3-yl)ureido)pyrazolo[1,5-a]pyrimidin-7-yl)morpholine-4-carboxylate] | 241 nM |  |  |
| Cn1ccnc1-c1c(NC(=O)Nc2cnc(-n3nccn3)c(Cl)c2)cnc2cc(Cl)nn12 [Example 86, 1-(5-chloro-6-(2H-1,2,3-triazol-2-yl)pyridin-3-yl)-3-(2-chloro-7-(1-methyl-1H-imidazol-2-yl)pyrazolo[1,5-a]pyrimidin-6-yl)urea] | 569 nM |  |  |
| COCC(OC)c1c(NC(=O)Nc2ccnc(C(F)(F)F)c2)cnc2cc(Cl)nn12 (stereo not shown) [Example 109, 1-(2-chloro-7-(1,2-dimethoxyethyl)pyrazolo[1,5-a]pyrimidin-6-yl)-3-(2-(trifluoromethyl)pyridin-4-yl)urea] |  | 53 nM | 218 nM |
| CN[C@@H](C)c1c(NC(=O)Nc2cnc(-n3nccn3)c(Cl)c2)cnc2cc(Cl)nn12 [Example 119, (S)-1-(5-chloro-6-(2H-1,2,3-triazol-2-yl)pyridin-3-yl)-3-(2-chloro-7-(1-(methylamino)ethyl)pyrazolo[1,5-a]pyrimidin-6-yl)urea] | 157 nM |  |  |

Further molecules by falling IC50 [2], results first:

| IC50 [1] | IC50 [2] | IC50 (Human IL2 promoter) | SMILES |
| --- | --- | --- | --- |
| 183 nM | 9 nM |  | CC1(c2c(NC(=O)Nc3ccnc(C(F)(F)F)c3)cnc3cc(Cl)nn23)CCCO1 (stereo not shown) [Example 36, 1-(2-chloro-7-(2-methyltetrahydrofuran-2-yl)pyrazolo[1,5-a]pyrimidin-6-yl)-3-(2-(trifluoromethyl)pyridin-4-yl)urea] |
|  | 9 nM | 115 nM | COC[C@@H](C)c1c(NC(=O)Nc2cnc(-n3nccn3)c(C(F)(F)F)c2)cnc2cc(Cl)nn12 [Example 110, (S)-1-(6-(2H-1,2,3-triazol-2-yl)-5-(trilfuoromethyl)pyridin-3-yl)-3-(2-chloro-7-(1-methoxypropan-2-yl)pyrazolo[1,5-a]pyrimidin-6-yl)urea] |
|  | 9 nM | 138 nM | CN1CCOCC1c1c(NC(=O)Nc2cnc(-n3nccn3)c(Cl)c2)cnc2cc(Cl)nn12 (stereo not shown) [Example 125, 1-(5-chloro-6-(2H-1,2,3-triazol-2-yl)pyridin-3-yl)-3-(2-chloro-7-(4-methylmorpholin-3-yl)pyrazolo[1,5-a]pyrimidin-6-yl)urea] |
|  | 9 nM | 78 nM | COC[C@@H](OC)c1c(NC(=O)Nc2cnc(-n3nccn3)c(Cl)c2)cnc2cc(Cl)nn12 [Example 127, (S)-1-(5-chloro-6-(2H-1,2,3-triazol-2-yl)pyridin-3-yl)-3-(2-chloro-7-(1,2-dimethoxyethyl)pyrazolo[1,5-a]pyrimidin-6-yl)urea] |
|  | 8 nM | 52 nM | COCC(OC)c1c(NC(=O)Nc2cnc(-n3nccn3)c(C(F)(F)F)c2)cnc2cc(Cl)nn12 (stereo not shown) [Example 108, 1-(6-(2H-1,2,3-triazol-2-yl)-5-(trifluoromethyl)pyridin-3-yl)-3-(2-chloro-7-(1,2-dimethoxyethyl)pyrazolo[1,5-a]pyrimidin-6-yl)urea] |
|  | 8 nM | 41 nM | CN[C@H](c1c(NC(=O)Nc2cnc(-n3nccn3)c(Cl)c2)cnc2cc(Cl)nn12)C(C)C [Example 124, (S)-1-(5-chloro-6-(2H-1,2,3-triazol-2-yl)pyridin-3-yl)-3-(2-chloro-7-(2-methyl-1-(methylamino)propyl)pyrazolo[1,5-a]pyrimidin-6-yl)urea] |
| 61 nM | 6 nM |  | CO[C@@H](c1c(NC(=O)Nc2cnc(-n3nccn3)c(C(F)(F)F)c2)cnc2cc(Cl)nn12)C(C)C [Example 4, (R)-1-(6-(2H-1,2,3-triazol-2-yl)-5-(trifluoromethyl)pyridin-3-yl)-3-(2-chloro-7-(1-methoxy-2-methylpropyl)pyrazolo[1,5-a]pyrimidin-6-yl)urea] |
| 112 nM | 5 nM |  | CO[C@@H](c1c(NC(=O)Nc2cnc(-n3nccn3)c(Cl)c2)cnc2cc(Cl)nn12)C(C)C [Example 5, (R)-1-(5-chloro-6-(2H-1,2,3-triazol-2-yl)pyridin-3-yl)-3-(2-chloro-7-(1-methoxy-2-methylpropyl)pyrazolo[1,5-a]pyrimidin-6-yl)urea] |
| 110 nM | 5 nM |  | COC(C)(C)c1c(NC(=O)Nc2ccnc(C(F)(F)F)c2)cnc2cc(Cl)nn12 [Example 15, 1-(2-chloro-7-(2-methoxypropan-2-yl)pyrazolo[1,5-a]pyrimidin-6-yl)-3-(2-(trifluoromethyl)pyridin-4-yl)urea] |
| 106 nM | 4 nM |  | CC(C)(C)c1c(NC(=O)Nc2cnc(-n3nccn3)c(Cl)c2)cnc2cc(Cl)nn12 [Example 34, 1-(7-(tert-butyl)-2-chloropyrazolo[1,5-a]pyrimidin-6-yl)-3-(5-chloro-6-(2H-1,2,3-triazol-2-yl)pyridin-3-yl)urea] |
| 60 nM | 3 nM |  | COCCO[C@@H](C)c1c(NC(=O)Nc2cnc(-n3nccn3)c(Cl)c2)cnc2cc(Cl)nn12 [Example 39, (S)-1-(5-chloro-6-(2H-1,2,3-triazol-2-yl)pyridin-3-yl)-3-(2-chloro-7-(1-(2-methoxyethoxy)ethyl)pyrazolo[1,5-a]pyrimidin-6-yl)urea] |
| 59 nM | 3 nM |  | COC(c1ccccc1)c1c(NC(=O)Nc2cnc(-n3nccn3)c(Cl)c2)cnc2cc(Cl)nn12 (stereo not shown) [Example 49, 1-(5-chloro-6-(2H-1,2,3-triazol-2-yl)pyridin-3-yl)-3-(2-chloro-7-(methoxy(phenyl)methyl)pyrazolo[1,5-a]pyrimidin-6-yl)urea] |
|  | 3 nM | 54 nM | COC[C@H](C)c1c(NC(=O)Nc2cnc(-n3nccn3)c(C(F)(F)F)c2)cnc2cc(Cl)nn12 [Example 111, (R)-1-(6-(2H-1,2,3-triazol-2-yl)-5-(trifluoromethyl)pyridin-3-yl)-3-(2-chloro-7-(1-methoxypropan-2-yl)pyrazolo[1,5-a]pyrimidin-6-yl)urea] |
